# Counter-ions that a name gives are not always drawn.
# Target: T1, human neutrophil elastase (Homo sapiens, UniProt P08246)
# T1 sequence (P08246 30-267): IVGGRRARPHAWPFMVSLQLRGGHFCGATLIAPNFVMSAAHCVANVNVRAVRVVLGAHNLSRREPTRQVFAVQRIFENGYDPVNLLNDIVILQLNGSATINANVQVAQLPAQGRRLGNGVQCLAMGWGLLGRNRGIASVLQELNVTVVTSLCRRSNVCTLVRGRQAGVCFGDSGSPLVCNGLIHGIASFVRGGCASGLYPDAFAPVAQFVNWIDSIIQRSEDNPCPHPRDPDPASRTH
# Assay: In vitro assay of human neutrophil elastase (HNE)
# Format: biochemical
# Settings: 118 nM purified human neutrophil elastase, pH 8.6, 15 min incubation at 30° C., MeO-succinyl-alanyl-alanyl-prolyl-valyl-p-nitroanilide substrate; read-out: HNE IC50
# Procedure, shortened: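 Residual activity was taken as the 10 min rate of absorbance rise at 405 nm after adding 0.6 mM MeO-succinyl-AAPV-p-nitroanilide. Curve fitting of activity against concentration gave IC50.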
row,IC50,SMILES
1,68 nM,"CC(C)[C@H]1C(=O)N(S(C)(=O)=O)[C@H]2CCN(S(=O)(=O)c3ccc(C(F)(F)F)cc3)[C@H]12 (relative stereo) [Example 228, rel-(3R,3aR,6aS)-3-Isopropyl-1-methanesulfony]4-(4-trifluoromethyl-benzenesulfonyl)-hexahydro-pyrrolo[3,2-b]pyrrol-2-one]"
2,193 nM,"CCC[C@H]1C(=O)N(S(C)(=O)=O)[C@H]2CCN(C(=O)CN3CCN(C)CC3)[C@H]12 (relative stereo) [Example 105, rel-(3R,3aR,6aS)-1-Methanesulfonyl-4-[(4-methyl-piperazin-1-yl)-acetyl]-3-propyl-hexahydro-pyrrolo[3,2-b]pyrrol-2-one hydrochloride]"
3,34 nM,"CCC[C@H]1C(=O)N(S(C)(=O)=O)[C@H]2CCN(S(=O)(=O)c3ccc(C(=O)N4CCCCC4)cc3)[C@H]12 (relative stereo) [Example 119, rel-(3R,3aR,6aS)-1-Methanesulfonyl-4-[4-(piperidine-1-carbonyl)-benzenesulfonyl]-3-propyl-hexahydro-pyrrolo[3,2-b]pyrrol-2-one]"
4,38 nM,"CCC[C@H]1C(=O)N(S(=O)(=O)c2ccc(C(F)(F)F)cc2)[C@H]2CCN(C(=O)CCCCCN3CCCCC3)[C@H]12 (relative stereo) [Example 202, rel-(3R,3aR,6aS)-4-(6-Piperidin-1-yl-hexanoyl)-3-propyl-1-(4-trifluoromethyl-benzenesulfonyl)-hexahydro-pyrrolo[3,2-b]pyrrol-2-one DL-tartrate]"
5,71 nM,"CCC[C@H]1C(=O)N(S(=O)(=O)c2ccc(N)cc2)[C@H]2CCN(C(=O)CCCCCN3CCCCC3)[C@H]12 (relative stereo) [Example 209, rel-(3R,3aR,6aS)-1-(4-Amino-benzenesulfonyl)-4-(6-piperidin-1-yl-hexanoyl)-3-propyl-hexahydro-pyrrolo[3,2-b]pyrrol-2-one DL-tartrate]"
6,79 nM,"CCC[C@H]1C(=O)N(S(C)(=O)=O)[C@H]2CCN(C(=O)CCN3CCCCCC3)[C@H]12 (relative stereo) [Example 99, hydrochloride]"
7,78 nM,"C=CC[C@H]1C(=O)N(S(=O)(=O)c2cc3ccccc3s2)[C@@H]2CCN(C(=O)OCc3ccccc3)[C@H]21 (relative stereo) [Example 42, rel-(3aR,6R,6aS)-6-Allyl-4-(benzo[b]thiophene-2-sulfonyl)-5-oxo-hexahydro-pyrrolo[3,2-b]pyrrole-1-carboxylic acid benzyl ester]"
8,62 nM,"CS(=O)(=O)N1C(=O)[C@H](C2CC2)[C@@H]2[C@@H]1CCN2C(=O)/C=C/CN1CCCCC1 (relative stereo) [Example 257, rel-(3R,3aR,6aS)-3-Cyclopropyl-1-methanesulfonyl-4-(4-piperidin-1-yl-but-2E-enoyl)-hexahydro-pyrrolo[3,2-b]pyrrol-2-one hydrochloride]"
9,28 nM,"CCC[C@H]1C(=O)N(S(=O)(=O)c2ccc(C#N)cc2)[C@H]2CCN(C(=O)CCCCCN3CCCCC3)[C@H]12 (relative stereo) [Example 205, rel-4-[2-Oxo-4-(6-piperidin-1-yl-hexanoyl)-3R-propyl-hexahydro-(3aR,6aS)-pyrrolo[3,2-b]pyrrole-1-sulfonyl]-benzonitrile DL-tartrate]"
10,30 nM,"CCC[C@H]1C(=O)N(S(C)(=O)=O)[C@H]2CCN(C(=O)/C=C/C(=O)OCC)[C@H]12 (relative stereo) [Example 128, rel-(3R,3aR,6aS)-4-(4-Methanesulfonyl-5-oxo-6-propyl-hexahydro-pyrrolo[3,2-b]pyrrole-1-yl)-4-oxo-but-2E-enoic acid ethyl ester]"
11,143 nM,"C=CC[C@@H]1C(=O)N(S(=O)(=O)c2ccc3ccccc3c2)[C@@H]2CCN(C(=O)OCc3ccccc3)[C@@H]12 [Example 53, (3aR,6S,6aS)-6-Allyl-4-(naphthalene-2-sulfonyl)-5-oxo-hexahydro-pyrrolo[3,2-n]pyrrole-1-carboxylic acid benzyl ester]"
